Data: patent US7998978B2 (Pfizer Inc., priority 2006, dated 2011)

Molecular target: T1, JNK1α1 (Homo sapiens, UniProt P45983)
T1 construct: catalytic domain containing amino acids 1-364 and N-terminal hexahistidine tag; hexahistidine (His6) (N); made in house; host or cells: E. coli BL21 (DE3)
Experiment: Coupled spectrophotometric (PK/LDH) JNK1α1 assay: % inhibition and Ki determination
Assay type: biochemical
Settings: @1 uM; read-out: % Inhibition JNK-1
In short: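 Initial rates were taken from the absorbance decrease at 340 nm at 30° C. Ki was fitted with a tight-binding model over 11 concentrations (top 100 μM); single-point inhibition was tested at 1 or 10 μM.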

T1 sequence (P45983 1-364): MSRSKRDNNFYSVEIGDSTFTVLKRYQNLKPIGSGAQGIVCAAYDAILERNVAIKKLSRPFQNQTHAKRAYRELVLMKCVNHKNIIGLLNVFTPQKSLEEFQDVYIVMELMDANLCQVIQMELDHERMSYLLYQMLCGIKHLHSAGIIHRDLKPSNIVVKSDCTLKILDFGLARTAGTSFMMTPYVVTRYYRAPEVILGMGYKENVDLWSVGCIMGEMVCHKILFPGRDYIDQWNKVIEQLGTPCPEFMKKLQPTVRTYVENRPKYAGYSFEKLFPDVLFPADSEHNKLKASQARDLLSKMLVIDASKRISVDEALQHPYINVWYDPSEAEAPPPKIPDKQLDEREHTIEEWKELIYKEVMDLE

SMILES	inhibition at 1 µM
O[C@H]1CC[C@H](Nc2ncc3ccc(OC[C@H]4CCCN4Cc4ccccc4)cc3n2)CC1 [Example 294, trans-4-[(7-{[(2R)-1-benzylpyrrolidin-2-yl]methoxy}quinazolin-2-yl)amino]cyclohexanol]	24%
O=C(N[C@H](CO)c1ccccc1)c1cccc2cnc(N[C@H]3CC[C@H](O)CC3)nc12 [Example 470, 2-[(trans-4-hydroxycyclohexyl)amino]-N-[(1S)-2-hydroxy-1-phenylethyl]quinazoline-8-carboxamide]	27%
O[C@H]1CC[C@H](Nc2ncc3ccc(O[C@@H]4CCN(Cc5ccccc5)C4)cc3n2)CC1 [Example 285, trans-4-[(7-{[(3R)-1-benzylpyrrolidin-3-yl]oxy}quinazolin-2-yl)amino]cyclohexanol]	29%
Cc1ccn(CCNC(=O)c2cccc3cnc(N[C@H]4CC[C@H](O)CC4)nc23)n1 [Example 498, 2-[(trans-4-hydroxycyclohexyl)amino]-N-[2-(3-methyl-1H-pyrazol-1-yl)ethyl]quinazoline-8-carboxamide]	11%
O=C(NCc1ccccn1)c1cccc2cnc(N[C@H]3CC[C@H](O)CC3)nc12 [Example 468, 2-[(trans-4-hydroxycyclohexyl)amino]-N-(pyridin-2-ylmethyl)quinazoline-8-carboxamide]	15%

Next, values leading:

inhibition at 1 µM	SMILES
37%	Cc1nn(C)c(C)c1NC(=O)c1cccc2cnc(N[C@H]3CC[C@H](O)CC3)nc12 [Example 318, 2-[(trans-4-hydroxycyclohexyl)amino]-N-(1,3,5-trimethyl-1H-pyrazol-4-yl)quinazoline-8-carboxamide]
26%	Cc1cccn(CCNC(=O)c2cccc3cnc(N[C@H]4CC[C@H](O)CC4)nc23)c1=O [Example 531, 2-[(trans-4-hydroxycyclohexyl)amino]-N-[2-(3-methyl-2-oxopyridin-1(2H)-yl)ethyl]quinazoline-8-carboxamide]

Same assay, conditions: @10 uM; read-out: % Inhibition JNK-1

inhibition at 10 µM	SMILES
50%	CC(C)c1nc(CNC(=O)c2cccc3cnc(N[C@H]4CC[C@H](O)CC4)nc23)no1 [Example 502, 2-[(trans-4-hydroxycyclohexyl)amino]-N-[(5-isopropyl-1,2,4-oxadiazol-3-yl)methyl]quinazoline-8-carboxamide]
49%	CN(C)C(=O)CNC(=O)c1cccc2cnc(N[C@H]3CC[C@H](O)CC3)nc12 [Example 509, N-[2-(dimethylamino)-2-oxoethyl]-2-[(trans-4-hydroxycyclohexyl)amino]quinazoline-8-carboxamide]

Same assay, conditions: JNK-1

SMILES	Ki
O=C(Nc1cc2cc(-c3cn[nH]c3)ccc2cn1)c1ccccc1 [Example 17, N-[6-(1H-pyrazol-4-yl)isoquinolin-3-yl]benzamide]	> 30 nM
O=C(N[C@@H]1Cc2ccccc2[C@H]1O)c1cccc2cnc(N[C@H]3CC[C@H](O)CC3)nc12 [Example 459, 2-[(trans-4-hydroxycyclohexyl)amino]-N-[(1R,2R)-1-hydroxy-2,3-dihydro-1H-inden-2-yl]quinazoline-8-carboxamide]	399 nM
c1ccc2ncc(CNc3cc4cc(-c5cn[nH]c5)ccc4cn3)cc2c1 [Example 220, 6-(1H-pyrazol-4-yl)-N-(quinolin-3-ylmethyl)isoquinolin-3-amine]	1930 nM
O=C(NCC1(O)CCCC1)c1cccc2cnc(N[C@H]3CC[C@H](O)CC3)nc12 [Example 460, 2-[(trans-4-hydroxycyclohexyl)amino]-N-[(1-hydroxycyclopentyl)methyl]quinazoline-8-carboxamide]	400 nM
O=C(NCc1ccccc1)c1ccc2cnc(N[C@H]3CC[C@H](O)CC3)nc2c1 [Example 81, N-benzyl-2-[(trans-4-hydroxycyclohexyl)amino]quinazoline-7-carboxamide]	63 nM
O=C(N[C@H](CO)c1ccccc1)c1ccc2cnc(N[C@H]3CC[C@H](O)CC3)nc2c1 [Example 372, 2-[(trans-4-hydroxycyclohexyl)amino]-N-[(1S)-2-hydroxy-1-phenylethyl]quinazoline-7-carboxamide]	73.5 nM
Cn1cncc1CNC(=O)c1cccc2cnc(N[C@H]3CC[C@H](O)CC3)nc12 [Example 465, 2-[(trans-4-hydroxycyclohexyl)amino]-N-[(1-methyl-1H-imidazol-5-yl)methyl]quinazoline-8-carboxamide]	782 nM
CN([C@H]1CC[C@H](Nc2ncc3cccc(C(=O)N[C@@H]4CCC[C@H]4O)c3n2)CC1)S(C)(=O)=O (relative stereo) [Example 142, N-[(trans)-2-hydroxycyclopentyl]-2-({trans-4-[methyl(methylsulfonyl)amino]cyclohexyl}amino)quinazoline-8-carboxamide]	226 nM
CC(C)NC(=O)c1ccc2cnc(N[C@H]3CC[C@H](O)CC3)nc2c1 [Example 64, 2-[(trans-4-hydroxycyclohexyl)amino]-N-isopropylquinazoline-7-carboxamide]	456 nM
O=S(=O)(N[C@H]1CC[C@H](Nc2ncc3ccc(OC4CCOC4)cc3n2)CC1)c1ccccc1 (stereo partly drawn) [Example 165, N-(trans-4-{[7-(tetrahydrofuran-3-yloxy)quinazolin-2-yl]amino}cyclohexyl)benzenesulfonamide]	153 nM
CC[C@H](C)[C@@H](CO)NC(=O)c1ccc2cnc(NC(C)C)nc2c1 [Example 409, N-[(1S,2S)-1-(hydroxymethyl)-2-methylbutyl]-2-(isopropylamino)quinazoline-7-carboxamide]	772 nM
O=C(CCc1cn2cccnc2n1)Nc1cc2cc(-c3cn[nH]c3)ccc2cn1 [Example 18, 3-imidazo[1,2-a]pyrimidin-2-yl-N-[6-(1H-pyrazol-4-yl)isoquinolin-3-yl]propanamide]	32 nM
CC(C)C[C@@H](CO)NC(=O)c1ccc2cnc(NC(C)C)nc2c1 [Example 391, N-[(1S)-1-(hydroxymethyl)-3-methylbutyl]-2-(isopropylamino)quinazoline-7-carboxamide]	365 nM
CS(=O)(=O)N[C@H]1CC[C@H](Nc2ncc3cccc(OC4CCOCC4)c3n2)CC1 [Example 182, N-(trans-4-{[8-(tetrahydro-2H-pyran-4-yloxy)quinazolin-2-yl]amino}cyclohexyl)methanesulfonamide]	146 nM
CCC[C@@H](CO)NC(=O)c1ccc2cnc(NC3CCCC3)nc2c1 [Example 387, 2-(cyclopentylamino)-N-[(1S)-1-(hydroxymethyl)butyl]quinazoline-7-carboxamide]	297 nM
CCN[C@H]1CC[C@H](Nc2ncc3cccc(OC4CCOCC4)c3n2)CC1 [Example 190, trans-N-ethyl-N′-[8-(tetrahydro-2H-pyran-4-yloxy)quinazolin-2-yl]cyclohexane-1,4-diamine]	342 nM
CN(C)CCNC(=O)c1cccc2cnc(N[C@H]3CC[C@H](O)CC3)nc12 [Example 127, N-[2-(dimethylamino)ethyl]-2-[(trans-4-hydroxycyclohexyl)amino]quinazoline-8-carboxamide]	3490 nM
CC(=O)N[C@H]1CC[C@H](Nc2ncc3ccc(OC4CCOC4)cc3n2)CC1 (stereo partly drawn) [Example 164, N-(trans-4-{[7-(tetrahydrofuran-3-yloxy)quinazolin-2-yl]amino}cyclohexyl)acetamide]	416 nM
CC(C)C[C@@H](CO)NC(=O)c1ccc2cnc(NC3CCC3)nc2c1 [Example 397, 2-(cyclobutylamino)-N-[(1S)-1-(hydroxymethyl)-3-methylbutyl]quinazoline-7-carboxamide]	428 nM

More lines, now with the values ahead:

Ki	SMILES
3500 nM	CC(C)(N)CNC(=O)c1cccc2cnc(N[C@H]3CC[C@H](O)CC3)nc12 [Example 128, N-(2-amino-2-methylpropyl)-2-[(trans-4-hydroxycyclohexyl)amino]quinazoline-8-carboxamide]
8 nM	Cc1cnc(C(=O)NCC(=O)Nc2cc3cc(-c4cn[nH]c4)ccc3cn2)cn1 [Example 43, 5-methyl-N-(2-oxo-2-{[6-(1H-pyrazol-4-yl)isoquinolin-3-yl]amino}ethyl)pyrazine-2-carboxamide]
33 nM	O=C(NC(CO)c1ccccc1F)c1ccc2cnc(N[C@H]3CC[C@H](O)CC3)nc2c1 (stereo partly drawn) [Example 98, N-[1-(2-fluorophenyl)-2-hydroxyethyl]-2-[(trans-4-hydroxycyclohexyl)amino]quinazoline-7-carboxamide]
1130 nM	CCN[C@H]1CC[C@H](Nc2ncc3cccc(OC4CCOC4)c3n2)CC1 (stereo partly drawn) [Example 192, trans-N-ethyl-N′-[8-(tetrahydrofuran-3-yloxy)quinazolin-2-yl]cyclohexane-1,4-diamine]
239 nM	O[C@H]1CC[C@H](Nc2ncc3cccc(OCCc4cn[nH]c4)c3n2)CC1 [Example 245, trans-4-({8-[2-(1H-pyrazol-4-yl)ethoxy]quinazolin-2-yl}amino)cyclohexanol]
195 nM	CC(C)[C@@H](CO)NC(=O)c1ccc2cnc(N[C@H]3CC[C@H](O)CC3)nc2c1 [Example 382, 2-[(trans-4-hydroxycyclohexyl)amino]-N-[(1S)-1-(hydroxymethyl)-2-methylpropyl]quinazoline-7-carboxamide]
78 nM	CC(C)(CO)NC(=O)c1cccc2cnc(N[C@H]3CC[C@H](NS(C)(=O)=O)CC3)nc12 [Example 132, N-(2-hydroxy-1,1-dimethylethyl)-2-({trans-4-[(methylsulfonyl)amino]cyclohexyl}amino)quinazoline-8-carboxamide]
0.8 nM	COc1ccc(CC(=O)Nc2cc3cc(-c4cnn(C)c4)ccc3cn2)cc1 [Example 4, 2-(4-methoxyphenyl)-N-[6-(1-methyl-1H-pyrazol-4-yl)isoquinolin-3-yl]acetamide]
190 nM	O[C@H]1CC[C@H](Nc2ncc3ccc(O[C@@H]4CCOC4)cc3n2)CC1 [Example 159, trans-4-({7-[(3R)-tetrahydrofuran-3-yloxy]quinazolin-2-yl}amino)cyclohexanol]
> 50 nM	Cc1ccc2c(c1)CCC2C(=O)Nc1cc2cc(-c3cn[nH]c3)ccc2cn1 (centres unmarked) [Example 21, 5-methyl-N-[6-(1H-pyrazol-4-yl)isoquinolin-3-yl]indane-1-carboxamide]
